These results are taken from US11925629B2, “Heterocyclic inhibitors of ERK1 and ERK2 and their use in the treatment of cancer” (Asana Biosciences, LLC, priority 2015, dated 2024).

Molecules are shown by their SMILES. Where two headings read alike, the source gives them in different places. Some results are limits rather than exact numbers.

What all share (format): cell-based, human
The test system of test [1] is phosphorylation of RSK1(S380) (the downstream target of ERK1/2). In words: Phospho-RSK1(S380) ELISA assay in HT-29 cells. The settings on record: Homo sapiens, HT-29, HT29 cells, read-out: Mechanistic Cell Assay RSK1 Phos HT29 IC50. The essentials:
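IC50 values derive from a variable-slope sigmoidal fit of sandwich-ELISA signal (450 nm) for RSK1 Ser380 phosphorylation. The cells were B-RafV600E HT-29 colorectal line, exposed to serially diluted compound for 2 h after overnight seeding, then lysed at 4° C.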

The subject of test [2] is HCT116 (colorectal carcinoma, K Ras G13D) cells. In words: Cell proliferation (Alamar Blue) assay, HCT116. Conditions: Homo sapiens, HCT-116, HCT116 cells. The essentials:
(§1)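 Cells seeded at 5000/well and allowed 16-24 h at 37° C./5% CO2, then exposed to compound (typically 0.0005-10 uM, 3-fold serial dilutions) for 72 h. Viability was read by Alamar Blue fluorescence (ex 540/em 590 nm) after 1-3 h. IC50 came from a variable-slope sigmoidal dose-response fit.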

Test [3] has as its system HT-29 (colorectal carcinoma, B-RafV600E) cells. In words: Cell proliferation (Alamar Blue) assay, HT-29. Conditions: Homo sapiens, HT-29, HT29 cells. The essentials: as §1
(Alamar Blue is a resazurin reagent that responds to reducing activity.)

For `Cc1cnc(Nc2ccc3c(c2)OCO3)nc1-n1cnc(C(=O)N[C@H](CO)c2cccc(Cl)c2)c1` [Example 48, (S)-1-(2-(benzo[d][1,3]dioxol-5-ylamino)-5-methyl-pyrimidin-4-yl)-N-(1-(3-chloro-phenyl)-2-hydroxy-ethyl)-1H-imidazole-4-carboxamide], the IC50 in test [1] (phospho-RSK1(S380)) lay in the range of 250 to 500 nM; in test [2], 500 to 2500 nM; in test [3] it was 250 to 500 nM.
As for `Cc1cnc(NC2CCCN(C)C2)nc1-n1ccc(C(=O)NC(CO)c2cccc(Cl)c2)c1` (stereo not drawn) [Example 199, N-(1-(3-chlorophenyl)-2-hydroxyethyl)-1-(5-methyl-2-((1-methylpiperidin-3-yl)amino)pyrimidin-4-yl)-1H-pyrrole-3-carboxamide], the 50% inhibitory concentration (IC50) was 500 to 2500 nM in test [1] (phospho-RSK1(S380)), over 2500 nM in test [2] and 500 to 2500 nM in test [3].
In the case of `Cc1cnc(NC2CCOCC2)nc1-n1cnc(C(=O)NC(CN)c2cccc(Cl)c2)c1` (racemic) [Compound 225, N-(2-Amino-1-(3-chlorophenyl)ethyl)-1-(5-methyl-2-((tetrahydro-2H-pyran-4-yl)amino)pyrimidin-4-yl)-1H-imidazole-4-carboxamide], the IC50 in test [1] (phospho-RSK1(S380)), in test [2] and in test [3] was at most 100 nM in each case.
With `COc1ccc(Nc2ncc(C)c(-n3ccc(C(=O)NC(CO)c4ccccc4)c3)n2)cc1OCCN1CCN(C)CC1` (stereo not drawn) [Example 148, N-(2-hydroxy-1-phenylethyl)-1-(2-((4-methoxy-3-(2-(4-methyl-piperazin-1-yl)ethoxy)-phenyl)amino)-5-methyl-pyrimidin-4-yl)-1H-pyrrole-3-carboxamide], the concentration for half-maximal inhibition (IC50) in test [1] (phospho-RSK1(S380)), in test [2] and in test [3] was 500 to 2500 nM each time.
Consider `COc1cc(F)ccc1Nc1ncc(C)c(-n2ccc(C(=O)NC(CO)c3cccc(Cl)c3)c2)n1` (stereo not drawn) [Example 142, N-(1-(3-chloro-phenyl)-2-hydroxy-ethyl)-1-(2-((4-fluoro-2-methoxy-phenyl)amino)-5-methyl-pyrimidin-4-yl)-1H-pyrrole-3-carboxamide], for which the concentration for half-maximal inhibition (IC50) in test [1] (phospho-RSK1(S380)) fell in the range of 250 to 500 nM; in test [2], 500 to 2500 nM; in test [3] it was 500 to 2500 nM.
`Cc1cnc(Nc2ccc3c(c2)OC(F)(F)O3)nc1-n1cnc(C(=O)NCc2cccc(Cl)c2CO)c1` [Example 332, N-(3-chloro-2-(hydroxymethyl)benzyl)-1-(2-((2,2-difluorobenzo[d][1,3]dioxol-5-yl)amino)-5-methylpyrimidin-4-yl)-1H-imidazole-4-carboxamide]: the concentration for half-maximal inhibition (IC50) in test [1] was at most 100 nM; in test [2], 250 to 500 nM; in test [3], 500 to 2500 nM.
Regarding `Cc1cnc(Nc2ccc3occc3c2)nc1-n1cnc(C(=O)NC(CO)c2cccc(Cl)c2)c1` (stereo not drawn) [Example 132, 1-(2-(benzo-furan-5-ylamino)-5-methyl-pyrimidin-4-yl)-N-(1-(3-chlorophenyl)-2-hydroxy-ethyl)-1H-imidazole-4-carboxamide], the half-maximal inhibitory concentration (IC50) in test [1] (phospho-RSK1(S380)), in test [2] and in test [3] was 500 to 2500 nM throughout.
As for `Cc1cnc(NC2CCOCC2)nc1-n1cnc(C(=O)N[C@H](CNCc2ccc[nH]2)c2cccc(Cl)c2)c1` [Example 306, (S)-N-(2-(((1H-pyrrol-2-yl)methyl)amino)-1-(3-chlorophenyl)ethyl)-1-(5-methyl-2-((tetrahydro-2H-pyran-4-yl)amino)pyrimidin-4-yl)-1H-imidazole-4-carboxamide], the IC50 in test [1] (phospho-RSK1(S380)) was 100 to 250 nM; in test [2] it was at most 100 nM; in test [3] it was at most 100 nM.
`CCC(C)Nc1ncc(C)c(-n2ccc(C(=O)N[C@H](CO)c3ccc(F)c(Cl)c3)c2)n1` (stereo partly drawn) [Example 197, 1-(2-(sec-butylamino)-5-methylpyrimidin-4-yl)-N-((S)-1-(3-chloro-4-fluorophenyl)-2-hydroxyethyl)-1H-pyrrole-3-carboxamide]: the concentration for half-maximal inhibition (IC50) in test [1] (phospho-RSK1(S380)) is 250 to 500 nM; in test [2], over 2500 nM; in test [3], 500 to 2500 nM.
For `CNC[C@@H](NC(=O)c1cn(-c2nc(NC3CCOCC3)ncc2C)cn1)c1cccc(Cl)c1` [Example 326, (S)-N-(1-(3-chlorophenyl)-2-(methylamino)ethyl)-1-(5-methyl-2-((tetrahydro-2H-pyran-4-yl)amino)pyrimidin-4-yl)-1H-imidazole-4-carboxamide], the IC50 in test [1], in test [2] and in test [3] was at most 100 nM each time.
As to `O=C(N[C@H](CO)c1cccc(Cl)c1)c1ccn(-c2ccnc(NC3CCOC3)c2)c1` (stereo partly drawn) [Example 188, N-((S)-1-(3-chlorophenyl)-2-hydroxyethyl)-1-(2-((tetrahydrofuran-3-yl)amino)pyridin-4-yl)-1H-pyrrole-3-carboxamide], the IC50 in test [1] (phospho-RSK1(S380)), in test [2] and in test [3] was over 2500 nM in each case.
With `Cc1cnc(N[C@H]2CCOC2)nc1-n1cnc(C(=O)NCc2cccc(C#N)c2)c1` [Example 310, (S)-N-(3-cyanobenzyl)-1-(5-methyl-2-((tetrahydrofuran-3-yl)amino)pyrimidin-4-yl)-1H-imidazole-4-carboxamide], the 50% inhibitory concentration (IC50) in test [1], in test [2] and in test [3] was over 2500 nM each time.
Turning to `Cc1cnc(Nc2ccc3[nH]ncc3c2)nc1-n1ccc(C(=O)NC(CO)c2ccccc2)c1` (stereo not drawn) [Example 140, 1-(2-((1H-indazol-5-yl)amino)-5-methyl-pyrimidin-4-yl)-N-(2-hydroxy-1-phenylethyl)-1H-pyrrole-3-carboxamide], the half-maximal inhibitory concentration (IC50) in test [1] (phospho-RSK1(S380)) was over 2500 nM; in test [2], 500 to 2500 nM; in test [3] it was 500 to 2500 nM.
For `Cc1cnc(N[C@H]2CCOC2)nc1-n1cnc(C(=O)NCc2cccc(Cl)c2C)c1` [Example 331, (S)-N-(3-chloro-2-methylbenzyl)-1-(5-methyl-2-((tetrahydrofuran-3-yl)amino)pyrimidin-4-yl)-1H-imidazole-4-carboxamide], the IC50 is at most 100 nM in test [1], 500 to 2500 nM in test [2] and 500 to 2500 nM in test [3].
In the case of `Cc1cnc(NC2CCOCC2)nc1-n1cnc(C(=O)NCc2ccccc2CN)c1` [Example 283, N-(2-(aminomethyl)benzyl)-1-(5-methyl-2-((tetrahydro-2H-pyran-4-yl)amino)pyrimidin-4-yl)-1H-imidazole-4-carboxamide], the half-maximal inhibitory concentration (IC50) in test [1] (phospho-RSK1(S380)) was 500 to 2500 nM; in test [2], over 2500 nM; in test [3], 500 to 2500 nM.
For `CC[C@@H](CO)Nc1ncc(C)c(-n2cnc(C(=O)N[C@H](CO)c3cccc(Cl)c3)c2)n1` [Example 220, N-((S)-1-(3-chlorophenyl)-2-hydroxyethyl)-1-(2-(((S)-1-hydroxybutan-2-yl)amino)-5-methylpyrimidin-4-yl)-1H-imidazole-4-carboxamide], the IC50 in test [1] (phospho-RSK1(S380)) fell in the range of 250 to 500 nM; in test [2], 500 to 2500 nM; in test [3] it was 100 to 250 nM.
For `Cc1cnc(NC2CCCCC2)nc1-n1ccc(C(=O)NC(CO)c2cccc(Cl)c2)c1` (stereo not drawn) [Example 195, N-(1-(3-chlorophenyl)-2-hydroxyethyl)-1-(2-(cyclohexylamino)-5-methylpyrimidin-4-yl)-1H-pyrrole-3-carboxamide], in that order: 100 to 250 nM, 500 to 2500 nM and 100 to 250 nM.
For `Cc1cnc(NC2CC(F)(F)C2)nc1-n1cnc(C(=O)N[C@H](CN)c2cc(F)cc(Cl)c2)c1` [Example 288, (S)-N-(2-amino-1-(3-chloro-5-fluorophenyl)ethyl)-1-(2-((3,3-difluorocyclobutyl)amino)-5-methylpyrimidin-4-yl)-1H-imidazole-4-carboxamide] the same measures were 100 to 250 nM, at most 100 nM and at most 100 nM.
In the case of `Cc1cnc(NC2CCCCC2O)nc1-n1ccc(C(=O)NC(CO)c2ccc(F)c(Cl)c2)c1` (stereo not drawn) [Example 202, N-(1-(3-chloro-4-fluorophenyl)-2-hydroxyethyl)-1-(2-((2-hydroxycyclohexyl)amino)-5-methylpyrimidin-4-yl)-1H-pyrrole-3-carboxamide], the IC50 in test [1] (phospho-RSK1(S380)) is over 2500 nM; in test [2], over 2500 nM; in test [3], 500 to 2500 nM.
Regarding `O=C(NC(CO)c1ccccc1)c1ccn(-c2nc(Nc3ccc4c(c3)OCO4)ncc2F)c1` (stereo not drawn) [Example 66, 1-(2-(benzo[d][1,3]dioxol-5-ylamino)-5-fluoro-pyrimidin-4-yl)-N-(2-hydroxy-1-phenylethyl)-1H-pyrrole-3-carboxamide], the IC50 in test [1] (phospho-RSK1(S380)) is 100 to 250 nM; in test [2] it was 500 to 2500 nM; in test [3] it was 250 to 500 nM.
For `CC[C@H](CO)Nc1ncc(C)c(-n2cnc(C(=O)NCc3cccc(Cl)c3CO)c2)n1` [Example 336, (R)-N-(3-chloro-2-(hydroxymethyl)benzyl)-1-(2-((1-hydroxybutan-2-yl)amino)-5-methylpyrimidin-4-yl)-1H-imidazole-4-carboxamide], the IC50 in test [1] was at most 100 nM; in test [2], 100 to 250 nM; in test [3] it was at most 100 nM.
As to `Cc1cnc(Nc2ccc(F)cc2)cc1-n1ccc(C(=O)NC(CN)c2ccc(F)c(Cl)c2)c1` (stereo not drawn) [Example 164, N-(2-amino-1-(3-chloro-4-fluoro-phenyl)ethyl)-1-(2-((4-fluorophenyl)-amino)-5-methyl-pyridin-4-yl)-1H-pyrrole-3-carboxamide], the concentration for half-maximal inhibition (IC50) in test [1] (phospho-RSK1(S380)) is 500 to 2500 nM; in test [2], over 2500 nM; in test [3], 500 to 2500 nM.

As a reminder, the IC50 is the point on the concentration scale where inhibition reaches its midpoint.
